Activity calls are given as the source filed them.
Key:
[1] = HepG2 cell cytotoxicity, dose response, cytotoxicity control for Shn3 inhibitor project, CellTiter-Glo, cherry-picked (AID 624134); type: functional, cell-based
[2] = Shn3 3'UTR reporter inhibitors, dose response, cell-based, Clone20 osteoblasts, firefly luciferase, cherry-picked (AID 624132); type: functional;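 further: firefly luciferase luminescence from reporter carrying the Shn3 3'UTR in osteoblasts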
[3] = biological target: T1, ATP-dependent translocase ABCB1 (Homo sapiens, UniProt P08183); assay: ABCB1 efflux inhibitor potency, dose response, Jurkat-DNR cells, JC-1, flow cytometry, set 2 (AID 504569); type: functional; settings: read-out: EC50_MICROM_;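 further: potency of pump inhibitors that raise cellular JC-1 green fluorescence up to the nicardipine level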
T1 sequence (P08183 whole entry): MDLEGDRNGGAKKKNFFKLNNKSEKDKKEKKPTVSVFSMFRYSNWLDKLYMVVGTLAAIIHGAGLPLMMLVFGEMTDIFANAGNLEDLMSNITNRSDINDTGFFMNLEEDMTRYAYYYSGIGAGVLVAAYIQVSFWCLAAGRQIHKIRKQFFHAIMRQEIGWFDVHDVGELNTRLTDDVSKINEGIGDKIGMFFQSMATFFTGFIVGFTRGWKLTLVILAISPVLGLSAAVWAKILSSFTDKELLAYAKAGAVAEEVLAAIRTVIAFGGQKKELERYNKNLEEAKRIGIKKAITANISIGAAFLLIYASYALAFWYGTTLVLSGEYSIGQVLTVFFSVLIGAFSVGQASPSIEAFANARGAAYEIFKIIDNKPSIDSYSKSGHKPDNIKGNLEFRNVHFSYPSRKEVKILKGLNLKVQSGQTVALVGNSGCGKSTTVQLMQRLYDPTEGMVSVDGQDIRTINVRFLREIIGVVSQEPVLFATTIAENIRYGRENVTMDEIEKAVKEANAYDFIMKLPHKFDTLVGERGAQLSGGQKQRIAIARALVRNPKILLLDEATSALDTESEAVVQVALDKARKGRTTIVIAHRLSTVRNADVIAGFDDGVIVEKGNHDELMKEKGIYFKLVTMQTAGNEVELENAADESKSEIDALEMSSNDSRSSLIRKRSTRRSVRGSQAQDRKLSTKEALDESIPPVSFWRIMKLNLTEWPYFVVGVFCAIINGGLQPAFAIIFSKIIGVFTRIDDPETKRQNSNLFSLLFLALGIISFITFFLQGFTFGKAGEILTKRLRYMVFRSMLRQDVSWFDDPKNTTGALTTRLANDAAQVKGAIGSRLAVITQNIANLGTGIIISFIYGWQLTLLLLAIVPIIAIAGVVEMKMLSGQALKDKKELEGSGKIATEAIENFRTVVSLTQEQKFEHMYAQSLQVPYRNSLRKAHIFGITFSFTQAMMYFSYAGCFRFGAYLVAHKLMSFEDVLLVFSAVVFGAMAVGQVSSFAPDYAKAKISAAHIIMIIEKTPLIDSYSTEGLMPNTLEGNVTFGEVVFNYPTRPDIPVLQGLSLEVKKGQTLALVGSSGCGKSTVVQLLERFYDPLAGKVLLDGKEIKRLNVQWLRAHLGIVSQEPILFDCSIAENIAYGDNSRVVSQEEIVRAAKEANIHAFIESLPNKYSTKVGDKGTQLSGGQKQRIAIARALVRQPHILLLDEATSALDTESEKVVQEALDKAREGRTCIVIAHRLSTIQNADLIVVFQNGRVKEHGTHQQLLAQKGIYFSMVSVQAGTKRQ

[4] = biological target: T1, ATP-dependent translocase ABCB1; assay: ABCG2 efflux pump inhibitor potency, dose response, Ig-MXP3 cells, JC-1, flow cytometry, set 2 (AID 504566); type: functional; settings: read-out: EC50_MICROM_;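 further: flow cytometry median green fluorescence of retained JC-1 dye; potency of efflux pump inhibition measured as rising substrate retention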
[5] = control 3'UTR Renilla luciferase suppression, dose response, counter-screen for Shn3 inhibitor project, cell-based, Clone20-Shn3RL, cherry-picked (AID 624133); type: functional
[6] = biological target: ADP-ribosylation factor GTPase-activating protein 1 (Rattus norvegicus, UniProt Q62848); assay: Fluorescence polarization-based biochemical high throughput dose response screening assay to identify inhibitors of ADP-ribosylation factor GTPase activating protein 1 (ARFGAP1).; type: functional
ADP-ribosylation factor GTPase-activating protein 1, sequence (Q62848 whole entry): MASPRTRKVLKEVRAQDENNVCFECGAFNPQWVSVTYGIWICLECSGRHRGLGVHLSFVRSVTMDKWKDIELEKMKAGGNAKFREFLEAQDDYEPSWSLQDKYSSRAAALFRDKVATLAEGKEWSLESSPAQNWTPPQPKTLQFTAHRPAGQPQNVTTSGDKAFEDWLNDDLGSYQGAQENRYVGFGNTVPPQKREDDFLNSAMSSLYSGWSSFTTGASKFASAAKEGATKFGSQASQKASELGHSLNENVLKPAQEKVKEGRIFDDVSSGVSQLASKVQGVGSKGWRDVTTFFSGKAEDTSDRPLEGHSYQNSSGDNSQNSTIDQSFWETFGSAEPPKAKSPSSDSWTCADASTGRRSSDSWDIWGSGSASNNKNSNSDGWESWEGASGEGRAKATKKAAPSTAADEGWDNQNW

[7] = biological target: DNA repair and recombination protein RAD54-like (Homo sapiens, UniProt Q92698); assay: inhibitors of human RAD54 branch migration, confirmation, biochemical, fluorescence, cherry-picked samples, dose series (AID 651657); type: functional
DNA repair and recombination protein RAD54-like, sequence (Q92698 whole entry): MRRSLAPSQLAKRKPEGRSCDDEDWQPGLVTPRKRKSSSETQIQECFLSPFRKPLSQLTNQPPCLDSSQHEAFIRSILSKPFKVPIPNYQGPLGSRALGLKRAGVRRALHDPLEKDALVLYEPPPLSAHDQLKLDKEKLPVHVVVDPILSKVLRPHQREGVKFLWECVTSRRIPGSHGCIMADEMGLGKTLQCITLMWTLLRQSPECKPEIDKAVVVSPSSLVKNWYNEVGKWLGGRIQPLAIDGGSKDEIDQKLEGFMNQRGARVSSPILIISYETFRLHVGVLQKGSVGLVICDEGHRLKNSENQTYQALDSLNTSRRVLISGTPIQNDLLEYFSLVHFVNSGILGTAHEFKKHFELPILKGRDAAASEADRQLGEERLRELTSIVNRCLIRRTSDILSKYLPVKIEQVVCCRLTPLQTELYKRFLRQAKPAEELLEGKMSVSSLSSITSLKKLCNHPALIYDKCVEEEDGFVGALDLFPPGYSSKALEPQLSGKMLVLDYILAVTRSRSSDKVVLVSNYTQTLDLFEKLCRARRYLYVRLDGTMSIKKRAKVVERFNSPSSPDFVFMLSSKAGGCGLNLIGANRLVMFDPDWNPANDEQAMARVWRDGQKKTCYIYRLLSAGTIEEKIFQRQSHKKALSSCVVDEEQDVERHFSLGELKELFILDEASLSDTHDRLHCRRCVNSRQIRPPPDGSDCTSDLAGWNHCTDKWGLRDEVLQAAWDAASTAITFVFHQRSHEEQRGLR

[8] = biological target: SWI/SNF-related matrix-associated actin-dependent regulator of chromatin subfamily A member 2 (Homo sapiens, UniProt P51531); assay: Luminescence-based cell-based high throughput dose response assay to identify activators of the function of SWI/SNF related, matrix associated, actin dependent regulator of chromatin, subfamily a, member 2 (SMARCA2, BRM).; type: functional
SWI/SNF-related matrix-associated actin-dependent regulator of chromatin subfamily A member 2, sequence (P51531 whole entry): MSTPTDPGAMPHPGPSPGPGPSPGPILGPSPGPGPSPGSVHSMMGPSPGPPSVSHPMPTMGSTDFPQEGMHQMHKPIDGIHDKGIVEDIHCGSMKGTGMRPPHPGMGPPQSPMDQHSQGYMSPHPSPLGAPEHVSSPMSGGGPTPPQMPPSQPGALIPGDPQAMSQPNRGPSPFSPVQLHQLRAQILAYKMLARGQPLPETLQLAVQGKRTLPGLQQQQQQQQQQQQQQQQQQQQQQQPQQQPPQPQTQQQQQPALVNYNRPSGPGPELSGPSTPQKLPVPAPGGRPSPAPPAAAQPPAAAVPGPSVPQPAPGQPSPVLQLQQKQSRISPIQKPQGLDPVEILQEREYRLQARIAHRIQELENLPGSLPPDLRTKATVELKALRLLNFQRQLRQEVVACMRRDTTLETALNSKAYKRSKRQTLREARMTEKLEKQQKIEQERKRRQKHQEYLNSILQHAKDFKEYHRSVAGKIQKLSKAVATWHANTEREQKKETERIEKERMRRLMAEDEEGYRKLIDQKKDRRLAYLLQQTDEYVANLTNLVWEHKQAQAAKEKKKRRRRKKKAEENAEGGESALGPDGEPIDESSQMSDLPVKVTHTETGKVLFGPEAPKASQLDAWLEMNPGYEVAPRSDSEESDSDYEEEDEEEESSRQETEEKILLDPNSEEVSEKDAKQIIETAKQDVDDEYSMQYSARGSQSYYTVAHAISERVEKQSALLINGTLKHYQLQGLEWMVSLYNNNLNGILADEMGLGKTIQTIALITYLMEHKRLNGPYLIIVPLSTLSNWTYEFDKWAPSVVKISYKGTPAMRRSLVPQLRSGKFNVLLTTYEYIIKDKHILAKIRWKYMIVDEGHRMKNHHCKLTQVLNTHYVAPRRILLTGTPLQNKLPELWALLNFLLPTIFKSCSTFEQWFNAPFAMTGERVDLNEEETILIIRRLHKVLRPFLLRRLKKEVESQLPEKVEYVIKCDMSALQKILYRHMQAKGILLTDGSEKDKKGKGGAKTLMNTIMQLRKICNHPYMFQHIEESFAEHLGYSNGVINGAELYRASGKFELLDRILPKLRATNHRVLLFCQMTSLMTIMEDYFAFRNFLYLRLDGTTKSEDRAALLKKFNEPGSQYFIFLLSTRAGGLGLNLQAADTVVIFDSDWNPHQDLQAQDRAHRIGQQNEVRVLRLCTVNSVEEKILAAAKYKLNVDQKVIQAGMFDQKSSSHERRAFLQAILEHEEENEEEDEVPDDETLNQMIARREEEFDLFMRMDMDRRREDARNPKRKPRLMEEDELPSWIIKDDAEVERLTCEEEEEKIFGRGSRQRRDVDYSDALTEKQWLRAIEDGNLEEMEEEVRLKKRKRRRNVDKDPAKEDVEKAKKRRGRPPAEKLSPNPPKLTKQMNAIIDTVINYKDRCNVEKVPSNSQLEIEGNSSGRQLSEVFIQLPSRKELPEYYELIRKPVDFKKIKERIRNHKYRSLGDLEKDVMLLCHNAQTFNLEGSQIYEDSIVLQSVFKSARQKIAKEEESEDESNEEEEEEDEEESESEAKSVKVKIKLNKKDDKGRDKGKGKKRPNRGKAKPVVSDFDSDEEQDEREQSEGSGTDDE

[9] = Counterscreen for activators of the function of SWI/SNF related, matrix associated, actin dependent regulator of chromatin, subfamily a, member 2 (SMARCA2, BRM): Luminescence-based cell-based high throughput dose response assay to identify non-selective compounds using the VP16 reporter assay.; type: functional
[10] = cytotoxicity toward NIH3T3 fibroblasts, dose response, counter-screen, cell-based, ATP luminescence, mouse fibroblasts (AID 2010); type: functional;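 further: cells exposed to compound for about 90 hours before reading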
[11] = inhibitors of intracellular T. cruzi replication, confirmation, NIH3T3 host cells, beta-gal luminescence (AID 2044); type: functional, cell-based;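 further: intracellular parasites grown in NIH/3T3 mouse fibroblasts as host cells; luminescent beta-galactosidase reporter signal from transgenic T. cruzi replicating inside host cells; inhibitors lower the luminescence signal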
[12] = biological target: FAD-linked sulfhydryl oxidase ALR (Homo sapiens, UniProt P55789); assay: inhibitors of human ALR sulfhydryl oxidase, dose response, biochemical, H2O2 detection, luminescence, cherry-pick (AID 493248)
FAD-linked sulfhydryl oxidase ALR, sequence (P55789 whole entry): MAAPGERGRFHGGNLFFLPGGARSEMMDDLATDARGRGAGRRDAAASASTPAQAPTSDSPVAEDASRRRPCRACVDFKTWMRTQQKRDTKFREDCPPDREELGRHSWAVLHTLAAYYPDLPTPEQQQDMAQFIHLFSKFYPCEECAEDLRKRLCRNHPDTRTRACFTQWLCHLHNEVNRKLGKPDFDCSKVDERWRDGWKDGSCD

Interleukin-8 [13] = biological target: T2, Interleukin-8 (Homo sapiens, UniProt P10145); assay: Dose Response confirmation of uHTS small molecule hits for cystic fibrosis induced NFkb Inhibitors in a TNFa-induced IL8 counterscreen.; type: functional; settings: read-out: IC50_Mean
T2 sequence (P10145 whole entry): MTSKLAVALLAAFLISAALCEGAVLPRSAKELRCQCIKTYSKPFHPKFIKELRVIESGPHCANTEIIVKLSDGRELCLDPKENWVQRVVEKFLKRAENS

Interleukin-8 [14] = biological target: T2, Interleukin-8; assay: Dose Response confirmation of uHTS small molecule hits for cystic fibrosis induced NFkb Inhibitors in a PAF-induced IL8 counterscreen.; type: functional; settings: read-out: IC50_Mean

In the case of `COc1cccc(-c2cc(N3CCN(C(=O)c4ccoc4)CC3)n3nc(-c4cccc(Cl)c4)cc3n2)c1`, the AC50 [1] is reported as 49 µM (active), the AC50 [2] is reported as 6.22 µM (active) and the EC50 [3] is reported as 2.89 µM (active). For the same compound, the EC50 [4] was 0.76 µM (active) and the AC50 [5] was > 70 µM (inactive).

With `Cc1nc(NCc2ccc(S(N)(=O)=O)cc2)c2c(C)c(C)sc2n1` the IC50 [6] was 42.5 µM (inactive).

For `COc1cc2nc(N(C)C)nc(N)c2cc1OC`, the AC50 [7] was 12.5 µM (active), the EC50 [8] was 37 µM (inactive) and the EC50 [9] was > 91.2 µM (inactive). For the same compound, the EC50 [10] was > 60 µM (not active) and the EC50 [11] was 6.08 µM (active).

For `COc1ccc(-c2c[nH]nc2-c2ccc(OC)cc2O)cc1`, the AC50 [12] was 9.8 µM (active), the IC50 (Interleukin-8 [13]) was > 79 µM (inactive) and the IC50 (Interleukin-8 [14]) was 43.5 µM (inactive).

Source: ChEMBL document CHEMBL1201862, “PubChem BioAssay data set” (2004)
